“And” between values parts separate entries of the source, which are not always exact repeats. Identical values can stand only once. Like-named read-outs stand apart in the source and are kept apart here.
Assays:
[1] = tested on: Dirofilaria immitis L3/L4; experiment: Dirofilaria immitis L3/L4 motility assay (DiroImager, 72 h); conditions: Dirofilaria immitis L4
[2] = tested on: Dirofilaria immitis microfilariae; experiment: Dirofilaria immitis microfilariae immobility assay (DiroImager, 72 h); conditions: Dirofilaria immitis microfilariae
Method: We conducted experiments with the Missouri isolate of Dirofilaria immitis in two labs. In the first set of experiments, shown as part of Fig. 3c, D. immitis microfilariae and larval stage 3 (L3) worms were assayed in the laboratories of Bayer Animal Health GmbH (Monheim, Germany). For microfilariae immobility assays, approximately 250 freshly purified microfilariae were cultured in single wells of a 96-well microtiter plate containing supplemented RPMI 1640 medium[68],[69]. […] Microfilariae exposed to medium substituted with 1% DMSO were used as negative controls. Motility of microfilariae was evaluated after 72 h of drug exposure using an image-based approach—DiroImager, developed by Bayer Technology Services. As described in detail in refs. [68],[69], the DiroImager is an automated high-throughput platform that allows for high-resolution optical imaging of an entire 96-well microtiter plate.

[3] = tested on: C. elegans; experiment: C. elegans motor phenotype scoring on solid media (Punc/jerky-unc, coiled, paralyzed), wild-type young adults; format: in vivo, Caenorhabditis elegans; conditions: for any phene, mean % fraction of young adults exhibiting any phenotype (coiled, jerky-Unc or paralyzed) / atypical locomotion (number of animals) / coiled (number of animals) / no phene (number of animals) / paralyzed (number of animals): one hour; for any phene, mean % fraction of young adults exhibiting any phenotype (coiled, jerky-Unc or paralyzed): mean of three biological replicates; for atypical locomotion (number of animals) / coiled (number of animals) / no phene (number of animals) / paralyzed (number of animals): young adults, 20 animals per trial, single replicate counts; for EC50: Caenorhabditis elegans, read-out: C. elegans - motor disruption EC50
[4] = tested on: Pristionchus pacificus; experiment: Pristionchus pacificus motor disruption dose-response on solid media, 1 h; conditions: for mean % any phene (coiled, jerky-Unc or paralyzed): Pristionchus pacificus young adults, mean of three biological replicates; for EC50: Pristionchus pacificus, 1 h, read-out: P. pacificus motor disruption EC50
[5] = conc 3.75, observed at one hour
[6] = any motor phenotype after 1 h on solid media, ± 95% CI

Structure (SMILES) | % effect (motility), DIROIM L4 ([1]; 2 µM) | % effect (motility), DIROIM L4 ([1]; 10 µM) | % effect (motility), DIROIM L4 ([1]; 50 µM) | % effect (motility), DIROIM MF ([2]; 0.016 µM) | % effect (motility), DIROIM MF ([2]; 0.08 µM) | % effect (motility), DIROIM MF ([2]; 0.4 µM) | % effect (motility), DIROIM MF ([2]; 2 µM) | % effect (motility), DIROIM MF ([2]; 10 µM) | any phene, mean % fraction of young adults exhibiting any phenotype (coiled, jerky-Unc or paralyzed) ([3]; 3.75uM) | atypical locomotion (number of animals) ([3]; 3.75uM) | coiled (number of animals) ([3]; 3.75uM) | no phene (number of animals) ([3]; 3.75uM) | paralyzed (number of animals) ([3]; 3.75uM) | any phene, mean % fraction of young adults exhibiting any phenotype (coiled, jerky-Unc or paralyzed) ([3]; 15uM) | atypical locomotion (number of animals) ([3]; 15uM) | coiled (number of animals) ([3]; 15uM) | no phene (number of animals) ([3]; 15uM) | paralyzed (number of animals) ([3]; 15uM) | any phene, mean % fraction of young adults exhibiting any phenotype (coiled, jerky-Unc or paralyzed) ([3]; 60uM) | atypical locomotion (number of animals) ([3]; 60uM) | other results
CCN1CCN(c2ccc([N+](=O)[O-])cc2)CC1 [Nemacol-8] | 0% | 5% | 5% | 0% | 0% | 0% | 0% | 0% | 0% | 0 | 0 | 20 | 0 | 0% | 0 | 0 | 20 | 0 | 28.5965% | 4 and 3 and 1 and 5 and 8 | coiled (number of animals) ([3]; 60uM): 0 and 2 and 1; no phene (number of animals) ([3]; 60uM): 16 and 17 and 13 and 15 and 11; paralyzed (number of animals) ([3]; 60uM): 0 and 3 and 2 and 1; EC50 ([3]; 1 h): > 60 µM; mean % any phene (coiled, jerky-Unc or paralyzed) [4, 5]: 0%; mean % any phene (coiled, jerky-Unc or paralyzed) ([4]; conc 15, observed at one hour): 48.3333%; mean % any phene (coiled, jerky-Unc or paralyzed) ([4]; conc 60, observed at one hour): 81.6667%; EC50 [4]: 17.8 ± 3.7 µM
Fc1ccc(N2CCN(CC3CCCCC3)CC2)cc1 [Nemacol-9] | 5% | 5% | 10% | 0% | 0% | 0% | 0% | 0% | 21.6667% | 0 and 14 and 12 | 0 | 20 and 6 and 8 | 0 | 44.1667% | 5 and 3 and 1 and 2 and 16 and 11 | 2 and 0 and 4 and 7 | 13 and 17 and 19 and 18 and 0 | 0 and 2 | 95% | 11 and 13 and 12 and 14 and 3 and 1 | coiled (number of animals) ([3]; 60uM): 6 and 5 and 4 and 8 and 13; no phene (number of animals) ([3]; 60uM): 0 and 4 and 2; paralyzed (number of animals) ([3]; 60uM): 3 and 2 and 0 and 9 and 6; EC50 [3, 6]: 14.4 ± 13.3 µM; mean % any phene (coiled, jerky-Unc or paralyzed) [4, 5]: 1.667%; mean % any phene (coiled, jerky-Unc or paralyzed) ([4]; conc 15, observed at one hour): 10%; mean % any phene (coiled, jerky-Unc or paralyzed) ([4]; conc 60, observed at one hour): 100%; EC50 [4]: 20 µM
Clc1ccc(N2CCN(CC3CCCCC3)CC2)cc1 [Nemacol-10] | 0% | 0% | 25% | 0% | 0% | 0% | 0% | 0% | 0% | 0 | 0 | 20 | 0 | 27.5% | 5 and 4 and 3 and 1 and 2 | 1 and 2 and 0 and 3 | 14 and 13 and 18 | 0 and 1 and 3 | 55.6944% | 8 and 14 and 12 and 11 and 6 and 7 | coiled (number of animals) ([3]; 60uM): 1 and 0 and 2; no phene (number of animals) ([3]; 60uM): 11 and 4 and 7 and 8 and 12 and 13; paralyzed (number of animals) ([3]; 60uM): 4 and 2 and 0; EC50 [3, 6]: 45.7 ± 15.7 µM; mean % any phene (coiled, jerky-Unc or paralyzed) [4, 5]: 0.8333%; mean % any phene (coiled, jerky-Unc or paralyzed) ([4]; conc 15, observed at one hour): 3.333%; mean % any phene (coiled, jerky-Unc or paralyzed) ([4]; conc 60, observed at one hour): 6.667%; EC50 [4]: > 60 µM
CCN1CCN(CC2CCCCC2)CC1 [Nemacol-11] | 10% | 5% | 0% | 0% | 0% | 0% | 0% | 0% | 3.333% | 0 and 3 and 1 | 0 | 20 and 17 and 19 | 0 | 6.667% | 0 and 5 and 3 | 0 | 20 and 15 and 17 | 0 | 19.1667% | 1 and 0 and 13 and 9 | coiled (number of animals) ([3]; 60uM): 0; no phene (number of animals) ([3]; 60uM): 19 and 20 and 7 and 11; paralyzed (number of animals) ([3]; 60uM): 0; EC50 [3, 6]: > 60 µM; mean % any phene (coiled, jerky-Unc or paralyzed) [4, 5]: 0%; mean % any phene (coiled, jerky-Unc or paralyzed) ([4]; conc 15, observed at one hour): 0%; mean % any phene (coiled, jerky-Unc or paralyzed) ([4]; conc 60, observed at one hour): 3.333%; EC50 [4]: > 60 µM

From article PMC10066365, “Nemacol is a small molecule inhibitor of C. elegans vesicular acetylcholine transporter with anthelmintic potential” (Nature Communications, 2023)
